For data set [1] the following is noted: cited from earlier work.
Data set [2] has as its system carrageenan-induced mouse paw edema. In words: Carrageenan-induced mouse paw edema. The format is in vivo. As to conditions: i.p., 0.028 mmol/kg, paw weight after 3.5 h; for inhibition in vivo at 28 µmol/kg: Mus musculus, ip, 3.5 h. The method, then:
All tested compounds were administrated through i.p. with a molar concentration of 0.028 mmol/kg.
The animals were weighed and then randomly divided into control, standard and test groups with each group including 10 mice. […] Edema was induced by injecting 0.1 mL of 1% aqueous solution of carrageenan subcutaneously to the sub-plantar region of the right hind paw, utilizing the left paw as control. The assessed derivatives, in suspended water/Tween-80, were injected i.p. […] After 3.5 h, the hind paws were excised and were weighed separately. The edema paws were estimated as paw weight increase.

For the next data set, the system named is MRC-5 cells. In words: Cytotoxicity / cell proliferation in MRC-5 cells. The format is cell-based, human. Particulars: MRC-5 cells, 0.1, 1 and 10 μM, 48 h. The protocol: The evaluation of cellular cytotoxicity of derivatives 3, 4, 10, 11 and 14 in normal human MRC-5 cells was accomplished at three different concentrations in cell culture, i.e., 0.1, 1 and 10 μM (Figure 7). No substantial effect on cell proliferation after 48 h of exposure was found in cultures, as the growth was ≥98% for all assessed agents by comparison with the control (untreated cells) (Figure 7).
The MRC-5 human cell line from lung fibroblast was stored and then utilized in our laboratory in a conventional manner (passage < 40). MRC-5 cells were cultured (using a humidified atmosphere enclosing 5% CO2 at 37 °C) in medium DMEM with 10% v/v FBS, 1% PS penicillin–streptomycin. The assessed derivatives were dissolved in dimethyl sulfoxide and stored at a temperature of 4 degrees centigrade. For cytotoxicity assessment, cells were seeded in 96-well culture plates at 5 × 10^4 cells/mL (initial density) and permitted to attach for at least 3 h before adding the compounds at increasing concentrations (0.1, 1 and 10 µM). […] To evaluate the cytotoxicity of each derivative, the cells were given an additional 48 h to grow before estimating their number in culture utilizing the Neubauer counting chamber (microscope observation). In every treated culture, cell growth was expressed and reported as the percentage of untreated growing cells. GraphPad Prism 6.0 program was utilized in order to accomplish statistical t-test analysis.
Figure 7 Cell proliferation assessment of MRC-5 cell lines subjected to different derivatives in cell culture. MRC-5 cell lines grown in culture were incubated separately with each of the derivatives at concentrations of 0.1, 1 and 10 μM for 48 h. The cell number was analyzed in cell cultures with microscopic techniques (Neubauer counting chamber), as reported in “Methods” and expressed as % of the proliferation of cultures involving control untreated cells. […] The diagram illustrated above and the t-test statistical analysis were performed utilizing the GraphPad Prism 6.0 program. No significant statistical difference between the control untreated culture cells with each tested derivative was attained.

Another data set relates to gastric mucosa. In words: Ulcerogenic activity (gastric lesions after oral dosing). The data set is classed as in vivo. As to conditions: mice, oral 0.028 mmol/kg, 3 successive days, N = 5. The method, then: Gastric toxicity was conducted through oral administration of 0.028 mmol/kg of the tested derivatives on mice, and the extent of lesions of the gastric mucosa was measured. […] This study clearly indicated the superiority of our compounds over indomethacin concerning ulcerogenic liability.
The ulcerogenicity effect of compounds was assessed on male mice by following the reported protocol. Male mice weighing 22–25 g were separated into six groups (five animals in each group). […] The placebo control group was administrated saline with few drops of Tween-80. The animals were sacrificed 4 h after the last dose, and the stomachs were inspected for stomach lesions. The scoring of ulcerogenicity was expressed in terms of: average number of ulcers per stomach, percentage incidence of ulcers and percent incidence of ulcer divided by 10. The ulcer index was calculated using the sum of the three above values.

The next data set concerns T1, soybean LOX.
T1 construct: purchased Sigma (St. Louis, MO, USA)
Description: LOX activity inhibition. The format is biochemical. The source says: κ-Carrageenan and lipoxygenase type I-B from soybean were obtained from Sigma (St. Louis, MO, USA). COX inhibition was studied utilizing the kit of “COX Inhibitor Screening Assay” (Cayman Chemical Co., Ann Arbor, MI, USA). In vivo tests, male and female (23–30 g) mice R”’ were stored in the Centre of the School of Veterinary Medicine (EL54-BIO42), (Aristotle University of Thessaloniki, Thessaloniki, Greek), licensed by the state official veterinary authorities (presidential degree 56/2013, in standardization with the European Directive 2010/63/EEC). The experimental protocols were approved by the Committee of Animal Ethics of the Prefecture of Central Macedonia (no. 270079/2500).
The reaction mixture contained the final concentration (300 µΜ) of the test derivatives, dissolved in absolute ethanol (10–300 µM), or the solvent (control), soybean LOX, dissolved in 0.9% NaCl solution (250 u/mL) and sodium linoleate (100 µM), in Tris–HCl buffer, pH 9.0. The reaction was monitored for 7 min at a temperature of 28 °C, noting the absorbance (234 nm) of a conjugated diene structure, following the formation of 13-hydroperoxy-linoleic acid. The performance of the assay was validated utilizing NDGA as a standard. For the evaluation of the inhibition type, the above experiments were repeated, utilizing sodium linoleate (1 mM), which is greater than the saturating substrate concentration.

A further data set addresses T2, ovine COX-1 (Ovis aries, UniProt P05979).
T2 construct: purchased Cayman Chemical Co., Ann Arbor, MI, USA
T2 sequence (P05979 25-600): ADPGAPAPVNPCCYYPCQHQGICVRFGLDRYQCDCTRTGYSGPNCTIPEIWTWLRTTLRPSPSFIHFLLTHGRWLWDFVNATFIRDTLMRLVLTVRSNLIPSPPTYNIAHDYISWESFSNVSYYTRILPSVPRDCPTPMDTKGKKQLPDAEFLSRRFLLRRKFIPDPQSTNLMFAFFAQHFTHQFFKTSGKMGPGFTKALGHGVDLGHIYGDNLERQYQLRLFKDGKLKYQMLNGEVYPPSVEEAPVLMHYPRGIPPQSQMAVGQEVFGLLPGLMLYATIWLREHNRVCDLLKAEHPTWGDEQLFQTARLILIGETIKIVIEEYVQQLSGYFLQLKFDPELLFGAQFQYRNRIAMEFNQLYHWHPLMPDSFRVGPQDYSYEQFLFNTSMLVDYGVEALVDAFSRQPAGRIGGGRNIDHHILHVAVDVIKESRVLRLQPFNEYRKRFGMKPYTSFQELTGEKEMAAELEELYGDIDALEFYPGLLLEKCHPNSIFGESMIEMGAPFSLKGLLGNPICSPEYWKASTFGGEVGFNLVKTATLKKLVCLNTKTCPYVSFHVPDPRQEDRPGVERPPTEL
In words: COX-1 inhibition (Cayman COX Inhibitor Screening Assay). The data set is classed as biochemical. Particulars: for IC50: read-out: COX-1 Inhibition, IC50 (μΜ). The method, then:
(§1) κ-Carrageenan and lipoxygenase type I-B from soybean were obtained from Sigma (St. Louis, MO, USA). COX inhibition was studied utilizing the kit of “COX Inhibitor Screening Assay” (Cayman Chemical Co., Ann Arbor, MI, USA).
(§2) The action of the tested derivatives on COX-1 and COX-2 inhibition was analyzed utilizing a commercial kit furnished by Cayman (Cayman Chemical Co., Ann Arbor, MI, USA) and by applying the instructions of the manufacturer. The kit utilizes human recombinant COX-2 and ovine COX-1 enzymes. […] The assay analyzes PGF2a produced by SnCl2 reduction of COX-derived PGH2.

For a further data set, the system named is T3, human recombinant COX-2.
T3 construct: purchased Cayman Chemical Co., Ann Arbor, MI, USA
In words: COX-2 inhibition (Cayman COX Inhibitor Screening Assay). The data set is classed as biochemical. The method, then: as §1, §2

The values that follow come from PMC10142904, “Identification of Novel Cyclooxygenase-1 Selective Inhibitors of Thiadiazole-Based Scaffold as Potent Anti-Inflammatory Agents with Safety Gastric and Cytotoxic Profile” (Molecules, 2023).

Structures are written as SMILES. Several values for one entry are separate records, joined by “and”; a condition that tells them apart may be missing. Identical values can stand only once. Like-named read-outs stand apart in the source and are kept apart here.

For `CC(C)Cc1ccc([C@H](CF)C(=O)O)cc1` [(S)-F-ibuprofen], in data set [1], the “Gastric damage (in words)” value is “low gastric damage”.
Regarding `O=C1N/C(=N\c2nnc(C34CC5CC(CC(C5)C3)C4)s2)S/C1=C\c1ccccc1` [Compound 1], in data set [2], the inhibition in vivo at 28 µmol/kg was determined as 40.8 ± 1.9%.
As to `O=C1N/C(=N\c2nnc(C34CC5CC(CC(C5)C3)C4)s2)S/C1=C\c1ccc(F)cc1` [Compound 2], the inhibition in vivo at 28 µmol/kg in data set [2] was determined as 39.7 ± 1.6%.
Consider `O=C1NC(=Nc2nnc(C34CC5CC(CC(C5)C3)C4)s2)SC1=Cc1ccc(Br)cc1` [Compound 3], for which the “Cell growth by comparison with the control (untreated cells)” value (“Cell growth by comparison” for short) with MRC-5 cells is reported as not below 98%. Moreover, in data set [2], the inhibition in vivo at 28 µmol/kg was 62% and the “Edema Inhibition, (%)” value is 62.0 ± 1.8 %. For the same molecule, the “Number of Animals with Ulcer” value in the data set on gastric mucosa is listed as “nil”. Besides, in the data set with soybean LOX, the “Enzymatic inhibition against LOX (in words)” value was “modest enzymatic inhibition” and the “LOX Inhibition (%) 100 μΜ” value worked out at 42.9 ± 1.9 %. Further, at ovine COX-1, the “COX-1 Inhibition, Inhibition (%) 200 μΜ” value came out at 100%; the IC50 was 1080 nM and 1120 nM. In the data set on human recombinant COX-2, the “COX-2 Inhibition, Inhibition (%) 200 μΜ” value is reported as 0%.
As to `O=C1NC(=Nc2nnc(C34CC5CC(CC(C5)C3)C4)s2)SC1=Cc1ccc([N+](=O)[O-])cc1` [Compound 4], the “Cell growth by comparison” value with MRC-5 cells was not below 98%. Also, in data set [2], the inhibition in vivo at 28 µmol/kg was 66.7% and the “Edema Inhibition, (%)” value was determined as 66.7 ± 2.1 %. Also, the “Number of Animals with Ulcer” value with gastric mucosa is “nil”. Also, in the data set on soybean LOX, the “Enzymatic inhibition against LOX (in words)” value is “modest enzymatic inhibition” and the “LOX Inhibition (%) 100 μΜ” value amounted to 39.8 ± 181 %. In addition, at ovine COX-1, the “COX-1 Inhibition, Inhibition (%) 200 μΜ” value worked out at 100%; the IC50 was 1120 nM and 1080 nM. Moreover, the “COX-2 Inhibition, Inhibition (%) 200 μΜ” value in the data set with human recombinant COX-2 came out at 0%.
The molecule `Cc1ccc(/C=C2\S/C(=N/c3nnc(C45CC6CC(CC(C6)C4)C5)s3)NC2=O)cc1` [Compound 5] returned an inhibition in vivo at 28 µmol/kg in data set [2] of 47.2 ± 1.2%.
Still for that read-out and setting: the same measure for `COc1ccc(/C=C2\S/C(=N/c3nnc(C45CC6CC(CC(C6)C4)C5)s3)NC2=O)cc1` [Compound 6]: 37 ± 1.6%; for `CN(C)c1ccc(/C=C2\S/C(=N/c3nnc(C45CC6CC(CC(C6)C4)C5)s3)NC2=O)cc1` [Compound 7]: 43.6 ± 1.3%.
`O=C1N/C(=N\c2nnc(C34CC5CC(CC(C5)C3)C4)s2)S/C1=C\c1ccccc1[N+](=O)[O-]` [Compound 8] showed an inhibition in vivo at 28 µmol/kg in data set [2] of 37 ± 1.4%.
In data set [2], `O=C1N/C(=N\c2nnc(C34CC5CC(CC(C5)C3)C4)s2)S/C1=C\c1cccc([N+](=O)[O-])c1` [Compound 9] came in with an inhibition in vivo at 28 µmol/kg of 41.9 ± 1.8%.
Take `O=C1NC(=Nc2nnc(C34CC5CC(CC(C5)C3)C4)s2)SC1=Cc1cccc(F)c1F` [Compound 10, 2-{[5-(Adamantan-1-yl)-1,3,4-thiadiazol-2-yl]-imino}-5-(2,3-difluorobenzylidene)-1,3-thiazolidin-4-one]: the “Cell growth by comparison” value with MRC-5 cells is given as not below 98%. Moreover, in data set [2], the inhibition in vivo at 28 µmol/kg was 55.8% and the “Edema Inhibition, (%)” value is given as 55.8 ± 1.9 %.
Turning to `O=C1N/C(=N\c2nnc(C34CC5CC(CC(C5)C3)C4)s2)S/C1=C\c1c(F)cccc1F` [Compound 11], in the data set on MRC-5 cells, the “Cell growth by comparison” value is not below 98%. In data set [2], the inhibition in vivo at 28 µmol/kg came to 60%.
The molecule `O=C1N/C(=N\c2nnc(C34CC5CC(CC(C5)C3)C4)s2)S/C1=C\c1cccc(Cl)c1Cl` [Compound 12] came in with an inhibition in vivo at 28 µmol/kg in data set [2] of 34.5 ± 1.1%.
`O=C1N/C(=N\c2nnc(C34CC5CC(CC(C5)C3)C4)s2)S/C1=C\c1ccc(Cl)cc1Cl` [Compound 13] registered an inhibition in vivo at 28 µmol/kg in data set [2] of 36 ± 1.8%.
For the molecule `COc1cc(/C=C2\S/C(=N/c3nnc(C45CC6CC(CC(C6)C4)C5)s3)NC2=O)ccc1O` [Compound 15], in data set [2], the inhibition in vivo at 28 µmol/kg was found to be 21.4% and the “Edema Inhibition, (%)” value was 21.4 ± 2.1 %.
For the molecule `Cc1onc(-c2ccc(Cl)o2)c1-c1ccccc1` [Compound P6], the “Gastric toxicity (in words)” value in data set [1] is given as “devoid of any gastric toxicity”.
With `COc1ccc(-c2nc(C(=O)N3CCN(C)CC3)sc2-c2ccc(OC)cc2)cc1` [FR122047], the “Gastric toxicity (in words)” value in data set [1] is recorded as “devoid of any gastric toxicity”.
For `COc1ccc2c(c1)c(CC(=O)O)c(C)n2C(=O)c1ccc(Cl)cc1` [Indomethacin, reference compound], the “Number of Animals with Ulcer” value with gastric mucosa is on record as 4/5; in the data set on gastric mucosa (listed as indomethacin) it was “four out of five”.
With `COc1ccc(-c2noc(CC(=O)O)c2-c2ccc(OC)cc2)cc1` [Mofezolac], the Ulcer index in data set [1] (dose of 10 mg) is on record as 0.98.
Consider `COc1ccc2c(c1)c(CC(=O)O)c(C)n2C1CCN(C)CC1` [N-methylpiperidinylindole], for which the “Gastric toxicity (in words)” value in data set [1] (in vivo) is on record as “devoid of any gastric toxicity”.
`COc1ccc2cc([C@H](C)C(=O)O)ccc2c1` [Naproxen, reference compound]: in the data set with human recombinant COX-2, the “COX-2 Inhibition, Inhibition (%) 200 μΜ” value worked out at 17.0 ± 2.3 %.
In the case of `COc1ccc(-n2nc(C(F)(F)F)cc2-c2ccc(Cl)cc2)cc1` [SC-560], in data set [1], the “Gastric toxicity (in words)” value is on record as “devoid of any gastric toxicity”.
As for `Nc1ccc(NC(=O)c2ccc(C(F)(F)F)cc2)cc1` [TFAP], the “Gastric toxicity (in words)” value in data set [1] (in vivo) is on record as “devoid of any gastric toxicity”.
As for `COc1ccc(-c2nc(NCC(=O)O)sc2-c2ccc(OC)cc2)cc1` [diarylthiazole], in data set [1], the “Gastric damage (in words)” value is on record as “low gastric damage”.
